# Test results published in patent US20220356147A1, “COMPOUNDS AND METHODS FOR POTENTIATING COLISTIN ACTIVITY” (University of Notre Dame du Lac, priority 2019, published 2022).
# Read-outs that look alike come from different tables or passages of the source.
# Legend:
# [1] = test system: A. baumannii 4106 (AB4106); assay: Broth microdilution, colistin potentiation; type: cell-based
# Experimental: (§1) Broth microdilution method for measurement of colistin potentiation: Bacteria were cultured for 4 to 6 hours in CAMHB and diluted to 1.04×10^6 CFU/mL for AB 4106 and 1.96×10^6 CFU/mL for KP B9 in fresh CAMHB. To aliquots (4 mL) was added compound from stock solutions in DMSO. One aliquot was not dosed to allow measurement of the colistin MIC in the absence of compound. A 1 mL aliquot of each sample was dosed with colistin, and from this 200 μL was dispensed into the first row of a 96-well microtiter plate in which all but the final row of subsequent wells was prefilled with 100 μL of the corresponding compound dosed bacterial suspension The final row was filled with media to act as a sterility control and blank. Row one wells were mixed 6-7 times, then, 100 μL was withdrawn and transferred to row two. Row two wells were mixed 6-7 times followed by a 100 μL transfer from row two to row three. This procedure was used to serially dilute the rest of the rows of the microtiter plate, excluding the last prefilled row, which was used to measure growth in the presence of compound alone. Plates were then sealed with GLAD
# (§2) Press'n Seal and incubated under stationary conditions at 37° C. […] MIC values were determined as the minimum concentration required to achieve 90% growth inhibition compared to growth in untreated wells.
# AB 4106 = assay: Broth microdilution, standalone MIC of compound; type: cell-based, A. baumannii; settings: Acinetobacter baumannii, 16 h, read-out: MIC of compound alone, AB 4106
# Experimental: Broth microdilution method for the determination of minimum inhibitory concentrations: Bacteria were cultured for 4 to 6 hours in CAMHB and subcultured to 1.04×10^6 CFU/mL for AB 4106 and 1.96×10^6 CFU/mL for KP B9 in fresh CAMHB. To aliquots (1 mL) was added compound from stock solutions in DMSO, such that the compound concentration equaled the highest concentration tested. Samples were then dispensed (200 μL) into the first row of a 96-well microtiter plate in which all but the final row of subsequent wells were prefilled with 100 μL of the untreated bacterial subculture. The final row was filled with media to act as a sterility control and blank. Row one wells were mixed 6-7 times, then, 100 μL was withdrawn and transferred to row two. Row two wells were mixed 6-7 times followed by a 100 μL transfer from row two to row three. This procedure was used to serially dilute the rest of the rows of the microtiter plate, excluding the last prefilled row, which was used to measure growth in the absence of compound. Plates were then sealed with GLAD Press'n Seal and incubated under stationary conditions at 37 C. […] MIC values were determined as the minimum concentration required to achieve 90% growth inhibition compared to growth in untreated wells.
# AB4106 and KPB9 = assay: Initial screen for colistin resistance suppression, statements in words for both strains; type: cell-based, A. baumannii and K. pneumoniae; settings: compound at 5 μM
# Experimental: as §1, §2
# [2] = compound at 5 μM, colistin alone 2048 μg/mL
"Colistin MIC fold reduction, AB 4106 [1, 2] [fold]","MIC (AB 4106; standalone, no colistin) [µM]","Colistin MIC fold reduction, AB 4106 ([1]; compound at 1 μM) [fold]","Colistin MIC fold reduction, AB 4106 ([1]; compound at 3 μM) [fold]",Structure (SMILES),"Colistin potentiation activity in words, compared to IMD-0354 (AB4106 and KPB9)","Colistin potentiation activity in words, AB4106 ([1]; compound at 5 μM)",MIC (AB 4106) [µM]
≤ 16,> 200,,,COc1cc(NC(=O)c2cc(Cl)ccc2O)cc(OC)c1 [Compound 19],bereft of activity,,
256,> 200,,,COc1ccc(O)c(C(=O)Nc2cc(C(F)(F)F)cc(C(F)(F)F)c2)c1 [Compound 11],,,
1024,> 200,128,512,O=C(Nc1cc(Cl)cc(Cl)c1)c1cc(F)ccc1O [Compound 43],,,
2048,> 200,128,512,O=C(Nc1cc(C(F)(F)F)cc(C(F)(F)F)c1)c1ccc(C(F)(F)F)cc1O [Compound 15],equipotent activity to IMD-0354,,
512,100,≤ 16,256,O=C(Nc1cc(C(F)(F)F)cc(C(F)(F)F)c1)c1cccc(Cl)c1O [Compound 5],essentially equipotent activity to IMD-0354,,
512,> 200,32,256,O=C(Nc1cc(Cl)cc(Cl)c1)c1cc(Br)ccc1O [Compound 46],,,
256,> 200,,,Cc1cc(C)cc(NC(=O)c2cc(I)ccc2O)c1 [Compound 53],,,
1024,> 200,64,1024,O=C(Nc1cc(C(F)(F)F)cc(C(F)(F)F)c1)c1cc(F)ccc1O [Compound 8],essentially equipotent activity to IMD-0354,,
32,> 200,,,Cc1ccc(NC(=O)c2cc(Cl)ccc2O)cc1C(F)(F)F [Compound 30],,,
,> 200,,,"O=C(Nc1cc(C(F)(F)F)cc(C(F)(F)F)c1)c1cccc(O)c1 [Compound 7, N-(3,5-bis(trifluoromethyl)phenyl)-3-hydroxybenzamide]",devoid of activity,,
1024,> 200,256,1024,O=C(Nc1cc(Br)cc(Br)c1)c1cc(Br)ccc1O [Compound 47],,,
512,> 200,≤ 16,256,Cc1ccc(O)c(C(=O)Nc2cc(C(F)(F)F)cc(C(F)(F)F)c2)c1 [Compound 12],,,
≤ 16,> 200,,,"Cc1cc(C)cc(NC(=O)c2cc(F)ccc2O)c1 [Compound 44, N-(3,5-dimethylphenyl)-5-fluoro-2-hydroxybenzamide]",,,
2048,> 200,256,1024,O=C(Nc1cc(Br)cc(Br)c1)c1ccc(C(F)(F)F)cc1O [Compound 56],,,
2048,50,128,512,"O=C(Nc1cc(Br)cc(Br)c1)c1cc(Cl)cc(Cl)c1O [Compound 60, 3,5-dichloro-N-(3,5-dibromophenyl)-2-hydroxybenzamide]",,,
1024,200,64,512,"O=C(Nc1cc(F)cc(F)c1)c1ccc(C(F)(F)F)cc1O [Compound 54, N-(3,5-difluorophenyl)-2-hydroxy-4-(trifluoromethyl)benzamide]",,,
1024,> 200,256,512,O=C(Nc1cc(F)cc(F)c1)c1cc(Br)ccc1O [Compound 45],,,

"Colistin MIC fold reduction, AB 4106 [1, 2] [fold]","MIC (AB 4106; standalone, no colistin) [µM]","Colistin MIC fold reduction, AB 4106 ([1]; compound at 1 μM) [fold]","Colistin MIC fold reduction, AB 4106 ([1]; compound at 3 μM) [fold]",Structure (SMILES),"Colistin potentiation activity in words, compared to IMD-0354 (AB4106 and KPB9)","Colistin potentiation activity in words, AB4106 ([1]; compound at 5 μM)",MIC (AB 4106) [µM]
512,100,32,256,O=C(Nc1cc(Cl)cc(Cl)c1)c1cc(Cl)cc(Cl)c1O [Compound 62],,,
512,> 200,64,256,O=C(Nc1cc(F)cc(F)c1)c1cc(I)ccc1O [Compound 50],,,
2048,200,256,1024,O=C(Nc1cc(C(F)(F)F)ccc1C(F)(F)F)c1cc(Br)ccc1O [Compound 49],,,
≤ 16,> 200,,,"Cc1cc(C)cc(NC(=O)c2cccc(Cl)c2O)c1 [Compound 58, 3-chloro-N-(3,5-dimethylphenyl)-2-hydroxybenzamide]",,,
256,> 200,,,"Cc1cc(C)cc(NC(=O)c2ccc(C(F)(F)F)cc2O)c1 [Compound 57, N-(3,5-dimethylphenyl)-2-hydroxy-4-(trifluoromethyl)benzamide]",,,
32,> 200,,,"O=C(Nc1ccc(F)c([N+](=O)[O-])c1)c1cc(Cl)ccc1O [Compound 35, 5-chloro-N-(4-fluoro-3-nitrophenyl)-2-hydroxybenzamide]",,Neither compound displayed significant activity,
256,200,,,O=C(Nc1cc(F)cc(F)c1)c1cc(F)ccc1O [Compound 42],,,
≤ 16,> 200,,,"O=C(Nc1cc(C(F)(F)F)cc(C(F)(F)F)c1)c1cc(O)ccc1O [Compound 16, N-(3,5-bis(trifluoromethyl)phenyl)-2,5-dihydroxybenzamide]",,essentially inactive,
128,> 200,,,O=C(Nc1ccc(F)cc1Br)c1cc(Cl)ccc1O [Compound 33],,,
,> 200,,,"O=C(Nc1cc(C(F)(F)F)cc(C(F)(F)F)c1)c1cc(O)cc(Cl)c1 [Compound 3, N-(3,5-bis(trifluoromethyl)phenyl)-3-chloro-5-hydroxybenzamide]",essentially equipotent activity to IMD-0354,,
1024,> 200,16,512,Cc1cc(C)cc(NC(=O)c2cc(Cl)ccc2O)c1 [Compound 20],,,
2048,> 200,256,1024,"O=C(Nc1cc(Cl)cc(Cl)c1)c1ccc(C(F)(F)F)cc1O [Compound 55, N-(3,5-dichlorophenyl)-2-hydroxy-4-(trifluoromethyl)benzamide]",,,
128,> 200,,,"O=C(Nc1cc(Cl)c(Br)c(Cl)c1)c1cc(Cl)ccc1O [Compound 41, N-(4-bromo-3,5-dichlorophenyl)-5-chloro-2-hydroxybenzamide]",,,
≤ 16,> 200,,,"Cc1cc(C)cc(NC(=O)c2cc(Cl)cc(Cl)c2O)c1 [Compound 59, 3,5-dichloro-N-(3,5-dimethylphenyl)-2-hydroxybenzamide]",,,
128,> 200,,,Cc1cc(C)cc(NC(=O)c2cc(Br)ccc2O)c1 [Compound 48],,,
1024,> 200,≤ 16,256,O=C(Nc1cccc(Cl)c1)c1cc(Cl)ccc1O [Compound 40],,,
≤ 16,> 200,,,O=C(Nc1c(F)cccc1Br)c1cc(Cl)ccc1O [Compound 34],,,

Structure (SMILES),"Colistin MIC fold reduction, AB 4106 [1, 2] [fold]","MIC (AB 4106; standalone, no colistin) [µM]","Colistin MIC fold reduction, AB 4106 ([1]; compound at 1 μM) [fold]","Colistin MIC fold reduction, AB 4106 ([1]; compound at 3 μM) [fold]","Colistin potentiation activity in words, compared to IMD-0354 (AB4106 and KPB9)","Colistin potentiation activity in words, AB4106 ([1]; compound at 5 μM)",MIC (AB 4106) [µM]
O=C(Nc1ccc(Br)cc1)c1cc(Cl)ccc1O [Compound 37],2048,,128,1024,,,> 200
